Columns and labels:
Test in all cases: relative viability (nuclei count vs DMSO), 5 days (fraction); higher = more cells survive
Palbociclib = compound: CC(=O)c1c(C)c2cnc(Nc3ccc(N4CCNCC4)cn3)nc2n(C2CCCC2)c1=O [Palbociclib]
Summary of the method: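 Lung cancer cell lines received five library-drug doses (not always all listed) spaced by √10, pinned on vehicle-anchored 1536-well plates after an overnight stay at 37 °C. Five days later, with no medium change, nuclei were Hoechst-stained, imaged at 4× and counted with MetaXpress. Viability is treated-well nuclei relative to vehicle-well nuclei, as a median across plates. Passing plates had control CV below 25% and at least one doubling.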

Palbociclib + Navitoclax = compound: CC(=O)c1c(C)c2cnc(Nc3ccc(N4CCNCC4)cn3)nc2n(C2CCCC2)c1=O [Palbociclib] + CC1(C)CCC(c2ccc(Cl)cc2)=C(CN2CCN(c3ccc(C(=O)NS(=O)(=O)c4ccc(N[C@H](CCN5CCOCC5)CSc5ccccc5)c(S(=O)(=O)C(F)(F)F)c4)cc3)CC2)C1 [Navitoclax] (partner 0.5 µM)
Summary of the method: (§1)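 Medians of duplicate plates are given as relative viability. That measure is the nuclei count in treated wells divided by the count in vehicle wells. Counts were taken on 4× images of lung cancer cell lines in 1536-well plates, 5 days after pin-tool dosing the day after seeding with one drug alone or a fixed anchor-drug dose plus five library-drug doses (not always all listed) in √10 steps.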

Palbociclib + Linsitinib = compound: CC(=O)c1c(C)c2cnc(Nc3ccc(N4CCNCC4)cn3)nc2n(C2CCCC2)c1=O [Palbociclib] + C[C@]1(O)C[C@@H](c2nc(-c3ccc4ccc(-c5ccccc5)nc4c3)c3c(N)nccn32)C1 [Linsitinib] (partner 1 µM)
Summary of the method: as §1

Palbociclib + Foretinib = compound: CC(=O)c1c(C)c2cnc(Nc3ccc(N4CCNCC4)cn3)nc2n(C2CCCC2)c1=O [Palbociclib] + COc1cc2c(Oc3ccc(NC(=O)C4(C(=O)Nc5ccc(F)cc5)CC4)cc3F)ccnc2cc1OCCCN1CCOCC1 [Foretinib] (partner 0.25 µM)
Summary of the method: as §1

Palbociclib + Crizotinib = compound: CC(=O)c1c(C)c2cnc(Nc3ccc(N4CCNCC4)cn3)nc2n(C2CCCC2)c1=O [Palbociclib] + C[C@@H](Oc1cc(-c2cnn(C3CCNCC3)c2)cnc1N)c1c(Cl)ccc(F)c1Cl [Crizotinib] (partner 1 µM)
Summary of the method: as §1

Palbociclib + Pictilisib = compound: CC(=O)c1c(C)c2cnc(Nc3ccc(N4CCNCC4)cn3)nc2n(C2CCCC2)c1=O [Palbociclib] + CS(=O)(=O)N1CCN(Cc2cc3nc(-c4cccc5[nH]ncc45)nc(N4CCOCC4)c3s2)CC1 [Pictilisib] (partner 1 µM)
Summary of the method: as §1

Palbociclib + Lapatinib = compound: CC(=O)c1c(C)c2cnc(Nc3ccc(N4CCNCC4)cn3)nc2n(C2CCCC2)c1=O [Palbociclib] + CS(=O)(=O)CCNCc1ccc(-c2ccc3ncnc(Nc4ccc(OCc5cccc(F)c5)c(Cl)c4)c3c2)o1 [Lapatinib] (partner 2 µM)
Summary of the method: as §1

Palbociclib + Vorinostat = compound: CC(=O)c1c(C)c2cnc(Nc3ccc(N4CCNCC4)cn3)nc2n(C2CCCC2)c1=O [Palbociclib] + O=C(CCCCCCC(=O)Nc1ccccc1)NO [Vorinostat] (partner 1 µM)
Summary of the method: as §1

Palbociclib + Olaparib = compound: CC(=O)c1c(C)c2cnc(Nc3ccc(N4CCNCC4)cn3)nc2n(C2CCCC2)c1=O [Palbociclib] + O=C(c1cc(Cc2n[nH]c(=O)c3ccccc23)ccc1F)N1CCN(C(=O)C2CC2)CC1 [Olaparib] (partner 8 µM)
Summary of the method: as §1

Palbociclib + Bortezomib = compound: CC(=O)c1c(C)c2cnc(Nc3ccc(N4CCNCC4)cn3)nc2n(C2CCCC2)c1=O [Palbociclib] + CC(C)C[C@H](NC(=O)[C@H](Cc1ccccc1)NC(=O)c1cnccn1)B(O)O [Bortezomib] (partner 0.002 µM)
Summary of the method: as §1

Palbociclib + Alpelisib = compound: CC(=O)c1c(C)c2cnc(Nc3ccc(N4CCNCC4)cn3)nc2n(C2CCCC2)c1=O [Palbociclib] + Cc1nc(NC(=O)N2CCC[C@H]2C(N)=O)sc1-c1ccnc(C(C)(C)C(F)(F)F)c1 [Alpelisib] (partner 2 µM)
Summary of the method: as §1

IA-LM
relative viability (Palbociclib; 0.01 µM): 0.901
relative viability (Palbociclib; 0.03162 µM): 0.54
relative viability (Palbociclib; 0.1 µM): 0.559
relative viability (Palbociclib; 0.3162 µM): 0.428
relative viability (Palbociclib; 1 µM): 0.162
relative viability (Palbociclib + Navitoclax; first compound 0.01 µM): 0.589
relative viability (Palbociclib + Navitoclax; first compound 0.03162 µM): 0.43
relative viability (Palbociclib + Navitoclax; first compound 0.1 µM): 0.234
relative viability (Palbociclib + Navitoclax; first compound 0.3162 µM): 0.206
relative viability (Palbociclib + Navitoclax; first compound 1 µM): 0.119
relative viability (Palbociclib + Linsitinib; first compound 0.01 µM): 0.492
relative viability (Palbociclib + Linsitinib; first compound 0.03162 µM): 0.399
relative viability (Palbociclib + Linsitinib; first compound 0.1 µM): 0.395
relative viability (Palbociclib + Linsitinib; first compound 0.3162 µM): 0.221
relative viability (Palbociclib + Linsitinib; first compound 1 µM): 0.118
relative viability (Palbociclib + Foretinib; first compound 0.01 µM): 1.06
relative viability (Palbociclib + Foretinib; first compound 0.03162 µM): 0.959
relative viability (Palbociclib + Foretinib; first compound 0.1 µM): 0.862
relative viability (Palbociclib + Foretinib; first compound 0.3162 µM): 0.514
relative viability (Palbociclib + Foretinib; first compound 1 µM): 0.313
relative viability (Palbociclib + Crizotinib; first compound 0.01 µM): 0.748
relative viability (Palbociclib + Crizotinib; first compound 0.03162 µM): 0.505
relative viability (Palbociclib + Crizotinib; first compound 0.1 µM): 0.373
relative viability (Palbociclib + Crizotinib; first compound 0.3162 µM): 0.138
relative viability (Palbociclib + Crizotinib; first compound 1 µM): 0.0793
relative viability (Palbociclib + Pictilisib; first compound 0.01 µM): 0.299
relative viability (Palbociclib + Pictilisib; first compound 0.03162 µM): 0.215
relative viability (Palbociclib + Pictilisib; first compound 0.1 µM): 0.167
relative viability (Palbociclib + Pictilisib; first compound 0.3162 µM): 0.113
relative viability (Palbociclib + Pictilisib; first compound 1 µM): 0.0912
relative viability (Palbociclib + Lapatinib; first compound 0.01 µM): 0.701
relative viability (Palbociclib + Lapatinib; first compound 0.03162 µM): 0.41
relative viability (Palbociclib + Lapatinib; first compound 0.1 µM): 0.392
relative viability (Palbociclib + Lapatinib; first compound 0.3162 µM): 0.264
relative viability (Palbociclib + Lapatinib; first compound 1 µM): 0.143
relative viability (Palbociclib + Vorinostat; first compound 0.01 µM): 0.955
relative viability (Palbociclib + Vorinostat; first compound 0.1 µM): 0.661
relative viability (Palbociclib + Vorinostat; first compound 0.3162 µM): 0.724
relative viability (Palbociclib + Vorinostat; first compound 1 µM): 0.312
relative viability (Palbociclib + Olaparib; first compound 0.01 µM): 0.755
relative viability (Palbociclib + Olaparib; first compound 0.03162 µM): 0.643
relative viability (Palbociclib + Olaparib; first compound 0.1 µM): 0.548
relative viability (Palbociclib + Olaparib; first compound 0.3162 µM): 0.474
relative viability (Palbociclib + Olaparib; first compound 1 µM): 0.268
relative viability (Palbociclib + Bortezomib; first compound 0.01 µM): 0.606
relative viability (Palbociclib + Bortezomib; first compound 0.03162 µM): 0.49
relative viability (Palbociclib + Bortezomib; first compound 0.1 µM): 0.469
relative viability (Palbociclib + Bortezomib; first compound 0.3162 µM): 0.348
relative viability (Palbociclib + Bortezomib; first compound 1 µM): 0.134
relative viability (Palbociclib + Alpelisib; first compound 0.01 µM): 0.826
relative viability (Palbociclib + Alpelisib; first compound 0.03162 µM): 0.675
relative viability (Palbociclib + Alpelisib; first compound 0.1 µM): 0.456
relative viability (Palbociclib + Alpelisib; first compound 0.3162 µM): 0.373
relative viability (Palbociclib + Alpelisib; first compound 1 µM): 0.144

Reference: the supplement of paper PMC10307832
